In the CheMixHub viscosity set:
± gives the uncertainty stated by the source.

Assay: xn = mol fraction of the nth substance listed

CCCCCCCCCCCCCC + CCCCCO
viscosity [mPa·s], 101.33 kPa
Conditions	x1 = 0.0999	x1 = 0.2002	x1 = 0.3001	x1 = 0.3987	x1 = 0.5009	x1 = 0.6004	x1 = 0.6996	x1 = 0.8014	x1 = 0.9002
293.15 K	3.262 ± 0.33	2.941 ± 0.3	2.698 ± 0.27	2.52 ± 0.25	2.396 ± 0.24	2.31 ± 0.23	2.26 ± 0.23	2.234 ± 0.22	2.243 ± 0.23
303.15 K	2.499 ± 0.25	2.274 ± 0.23	2.103 ± 0.21	1.982 ± 0.2	1.896 ± 0.19	1.845 ± 0.19	1.82 ± 0.18	1.817 ± 0.18	1.829 ± 0.18
313.15 K	1.963 ± 0.2	1.797 ± 0.18	1.674 ± 0.17	1.588 ± 0.16	1.531 ± 0.15	1.5 ± 0.15	1.491 ± 0.15	1.501 ± 0.15	1.519 ± 0.15
323.15 K	1.556 ± 0.16	1.441 ± 0.14	1.353 ± 0.14	1.297 ± 0.13	1.259 ± 0.13	1.241 ± 0.12	1.246 ± 0.13	1.262 ± 0.13	1.285 ± 0.13

O=[N+]([O-])c1ccccc1 + O=C1CCCCC1
Conditions	viscosity [mPa·s]
298.15 K, 101.3 kPa, x2 = 0.1946	1.785 ± 0.027

ClC(Cl)=C(Cl)Cl + c1ccccc1
Conditions	viscosity [mPa·s]
298.15 K, 101 kPa, x2 = 0.0876	0.8015 ± 0.0068
298.15 K, 101 kPa, x2 = 0.1609	0.771 ± 0.0066
298.15 K, 101 kPa, x2 = 0.3555	0.7018 ± 0.006
298.15 K, 101 kPa, x2 = 0.452	0.6743 ± 0.0058
298.15 K, 101 kPa, x2 = 0.6216	0.6351 ± 0.0055
298.15 K, 101 kPa, x2 = 0.6602	0.6286 ± 0.0054
298.15 K, 101 kPa, x2 = 0.708	0.6209 ± 0.0054
298.15 K, 101 kPa, x2 = 0.781	0.6115 ± 0.0053
298.15 K, 101 kPa, x2 = 0.8752	0.6029 ± 0.0052
298.15 K, 101 kPa, x2 = 0.9037	0.6011 ± 0.0052
303.15 K, 101.33 kPa, x1 = 0.1913	0.577 ± 0.006
303.15 K, 101.33 kPa, x1 = 0.2749	0.584 ± 0.006
303.15 K, 101.33 kPa, x1 = 0.3761	0.605 ± 0.006
303.15 K, 101.33 kPa, x1 = 0.4668	0.624 ± 0.006
303.15 K, 101.33 kPa, x1 = 0.5756	0.648 ± 0.006
303.15 K, 101.33 kPa, x1 = 0.6664	0.675 ± 0.007
303.15 K, 101.33 kPa, x1 = 0.7757	0.712 ± 0.007
303.15 K, 101.33 kPa, x1 = 0.8828	0.746 ± 0.007

CCCCCCCCCCCCCC + Clc1ccccc1
viscosity [mPa·s], 101 kPa
Conditions	x1 = 0.1001	x1 = 0.1937	x1 = 0.295	x1 = 0.3916	x1 = 0.494	x1 = 0.5998	x1 = 0.6984	x1 = 0.8002	x1 = 0.9001
298.15 K	0.844 ± 0.083	0.945 ± 0.091	1.063 ± 0.1	1.151 ± 0.11	1.266 ± 0.12	1.38 ± 0.13	1.495 ± 0.14	1.609 ± 0.15	1.724 ± 0.16
303.15 K	0.789 ± 0.078	0.877 ± 0.085	0.964 ± 0.093	1.097 ± 0.1	1.161 ± 0.11	1.226 ± 0.11	1.291 ± 0.12	1.354 ± 0.12	1.419 ± 0.13
308.15 K	0.746 ± 0.074	0.819 ± 0.081	0.932 ± 0.09	0.991 ± 0.095	1.041 ± 0.099	1.19 ± 0.11	1.241 ± 0.12	1.219 ± 0.11	1.397 ± 0.13
